# Data from patent US9895370B2, “Pharmaceutical composition for preventing or treating of cirrhosis of liver comprising G protein coupled receptor 119 ligand as an active ingredient” (DONGGUK UNIVERSITY INDUSTRY—ACADEMIC COOPERATION FOUNDATION, priority 2015, dated 2018).
# Tested on: human HSC line LX-2
# Experiment: TGFβ1-inducible collagen I and TGFβ expression in LX-2
# Type: cell-based
# Settings: LX-2 treated with TGFβ1; FIGS. 2c, 2d
# Experimental: A human HSC line (LX-2, Milipore, U.S.A.) was plated in a 6-well plate, and grown to confluency in DMEM supplemented with 1% penicillin-streptomycin (Hyclone, U.S.A.) and 2% fetal bovine serum (Hyclone, U.S.A.) at 37° C. in a 5% CO2 incubator. For a further experiment, the confluent HSC line was incubated in an FBS-free medium, instead of the 2% FBS-added medium.
# Total RNA ([…]) extracted from cells using Trizol and a Maxime RT PreMix Kit (iNtRON Biotechnology, Gyeonggi-do, Korea) was used to obtain cDNA. For RT-PCR, a target gene was amplified by PCR using a Maxime™ PCR PreMix Kit according to the manufacturer's instructions, and subjected to electrophoresis in a 2% agrose gel, thereby identifying the amplified PCR product.
# Meanwhile, for real-time RT-qPCR, the synthesized cDNA was assessed in a CFX Connect™ Real-Time PCR Detection System (Bio-Rad Laboratories, CA, USA) instrument using a SYBR green dye (Bio-Rad). The CP value of the gene was calibrated with the CP value of S 18r gene. Also, through a melting curve analysis, specificity of the amplified PCR product was confirmed.
# Sodium dodecylsulfate-polyacrylamide gel electrophoresis (SDS-PAGE) was performed using a gel electrophoresis device (Mighty Small SE 250, Hoefer Scientific Instruments, San Francisco) according to the method established by the inventors. A lysed cell fraction was diluted with a sample dilution buffer [63 mM Tris (pH. 6.8), 10% glycerol, 2% SDS, 0.0013% bromophenol blue, 5% β-mercaptoethanol], and subjected to electrophoresis in an electrode buffer (15 g Tris, 72 g glycerin and 5 g SDS contained in an 1 L solution) using a 8-12% gel. After electrophoresis, the gel was transferred to a nitrocellulose membrane to transfer proteins using an electrophoresis device for transfer in a transfer buffer (25 mM Tris, 192 mM glycerin, 20% v/v methanol (pH. 8.3)] at 40 mA for 3 hours. The nitrocellulose membrane was reacted with first antibodies, reacted with horseradish peroxidase-conjugated goat anti-rabbit IgG and horseradish peroxidase-conjugated goat anti-mouse IgG as secondary antibodies for 1 hour, and visualized using an ECL chemiluminescence system (Amersham, Gaithesberg, Mass.).
# A critical cytokine having an influence on the induction of liver fibrosis, TGFβ1, is a potent fibrosis stimulation factor for HSCs. To examine the expression of a liver fibrosis-inducing factor which was increased when the human liver cell line LX-2, cultured by method D was treated with TGFβ1, changes in expression according to the treatment with GPR119 ligands (MBX-2982, GSK1292263) were assessed by the methods described in G and H, thereby observing the effect of the GPR119 ligands.
smiles,measurement,value
"CC(C)c1noc(N2CCC(COc3ccc(-c4ccc(S(C)(=O)=O)cc4)nc3)CC2)n1 [GSK1292263, 3-isopropyl-5-(4-(((6-(4-(methylsulfonyl)phenyl)pyridin-3-yl)oxy)methyl)piperidin-1-yl)-1,2,4-oxadiazole]",expression of TGFβ1-inducible TGFβ,inhibited
same,expression of TGFβ1-inducible collagen I,inhibited
